Assay results: paper PMC6092189 (Nature structural & molecular biology, 2018)

Molecular target: human β-cardiac myosin (Homo sapiens, UniProt P12883)
Test: single-molecule harmonic force spectroscopy dose titration
Type: binding

human β-cardiac myosin, sequence (P12883 1-808): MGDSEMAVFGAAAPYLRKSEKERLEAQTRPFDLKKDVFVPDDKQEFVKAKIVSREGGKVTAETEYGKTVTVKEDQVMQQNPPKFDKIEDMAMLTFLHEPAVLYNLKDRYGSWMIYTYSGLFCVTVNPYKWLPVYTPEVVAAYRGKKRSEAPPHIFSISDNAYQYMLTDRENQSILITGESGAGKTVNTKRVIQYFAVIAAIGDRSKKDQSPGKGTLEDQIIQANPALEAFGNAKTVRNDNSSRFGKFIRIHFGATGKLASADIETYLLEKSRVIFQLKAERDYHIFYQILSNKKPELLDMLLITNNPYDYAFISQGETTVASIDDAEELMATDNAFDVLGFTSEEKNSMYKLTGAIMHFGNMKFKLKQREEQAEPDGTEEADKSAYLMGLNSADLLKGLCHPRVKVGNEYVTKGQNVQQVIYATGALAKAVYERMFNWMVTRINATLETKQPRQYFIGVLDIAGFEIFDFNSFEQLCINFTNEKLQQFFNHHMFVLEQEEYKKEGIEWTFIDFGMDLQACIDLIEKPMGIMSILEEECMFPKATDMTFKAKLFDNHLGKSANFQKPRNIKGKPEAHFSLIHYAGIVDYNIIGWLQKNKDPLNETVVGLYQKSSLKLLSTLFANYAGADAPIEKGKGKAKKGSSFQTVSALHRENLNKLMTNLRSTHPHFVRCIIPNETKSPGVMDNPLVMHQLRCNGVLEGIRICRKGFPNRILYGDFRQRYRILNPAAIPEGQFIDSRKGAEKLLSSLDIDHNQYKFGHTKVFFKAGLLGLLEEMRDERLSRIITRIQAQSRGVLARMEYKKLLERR
human β-cardiac myosin, sequence (P08590 2-195 partner): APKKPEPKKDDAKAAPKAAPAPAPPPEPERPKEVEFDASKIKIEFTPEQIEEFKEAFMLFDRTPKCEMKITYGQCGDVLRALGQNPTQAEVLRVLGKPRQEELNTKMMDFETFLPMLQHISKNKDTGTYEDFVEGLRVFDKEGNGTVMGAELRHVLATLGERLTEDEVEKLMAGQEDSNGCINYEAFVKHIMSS

Kd: 310 ± 50 nM
Structure (SMILES): COC(=O)N1CCN(Cc2cccc(NC(=O)Nc3ccc(C)nc3)c2F)CC1 [OM, omecamtiv mecarbil]
